For five compounds, MIC and IC50 results are on record in ChEMBL document CHEMBL4602665, “Amphiepicoccins A-J: Epipolythiodioxopiperazines from the Fish-Gill-Derived Fungus Epicoccum nigrum HDN17-88” (J Nat Prod, 2020).

SMILES strings stand for the structures. ≈ marks a conversion by molar mass, not a printed value.

The subject of one experiment is Bacillus subtilis. The experiment in a line: Growth inhibition of Bacillus subtilis. The experiment is classed as functional.
Settings: not given
Usually MIC stands for the smallest concentration in the dilution series that meets the test's criterion for growth inhibition. `CO[C@H]1CC(=O)[C@@H]2C[C@@]3(SC)C(=O)N4[C@@H]5[C@@H](O)[C@H]6CC(=O)[C@@H]5C[C@@]4(S6)C(=O)N3[C@@H]2[C@H]1O` had an MIC of 25 µM (≈ 11.7 µg/mL). Compound `CO[C@H]1CC(=O)[C@@H]2C[C@@]3(SC)C(=O)N4[C@@H]5[C@@H](O)[C@H]6CC(=O)[C@@H]5C[C@@]4(SS6)C(=O)N3[C@@H]2[C@H]1O` showed an MIC of 13 µM (≈ 6.51 µg/mL).

For a further experiment, the system named is Human alphaherpesvirus 2. Briefly: Antiviral activity against Herpes simplex virus 2 infected in African green monkey Vero cells assessed as inhibition of virus-induced cytopathogenic effect after 24 hrs by crystal violet staining based assay. The format is functional, organism-based. The following applies: Human alphaherpesvirus 2, Vero.
Broadly, the IC50 is the point on the concentration scale where inhibition reaches its midpoint. Take `CO[C@H]1CC(=O)[C@@H]2C[C@@]3(SC)C(=O)N4[C@@H]5[C@@H](O)[C@H]6CC(=O)[C@@H]5C[C@@]4(S6)C(=O)N3[C@@H]2[C@H]1O`: the IC50 turned out to be 29 µM. Same read-out and setting: to `Nc1nc2c(ncn2COCCO)c(=O)[nH]1` [ACYCLOVIR] belongs 31 µM; to `CS[C@@]12C[C@H]3C(=O)C=C[C@H](O)[C@H]3N1C(=O)[C@@]13C[C@H]4C(=O)C[C@@H](SS1)[C@H](O)[C@H]4N3C2=O`, 64 µM; to `O=C1C[C@H]2SS[C@@]34C[C@@H]1[C@@H]([C@H]2O)N3C(=O)c1cc2cc(O)ccc2n1C4=O`, 70 µM.
